{"source": "patent US10245239B2", "about": "“Astaxanthin anti-inflammatory synergistic combinations” (Lycored Ltd., priority 2013, dated 2019)", "key": {"[1]": {"tested_on": "LPS-stimulated macrophages", "assay": "NO production by LPS-stimulated macrophages", "format": "cell-based, ICR mice", "settings": "astaxanthin alone, FIG. 1", "method": "(§1) 100 U/ml penicillin. […] streptomycin (Beit-Haemek, Israel).\n(§2) The anti-inflammatory effect was detected by inhibition of NO production and of TNF alpha production by LPS-stimulated macrophages.\nNO levels in supernatants of cell cultures were determined by assaying nitrite levels using Griess reagent and sodium nitrite as a standard."}, "[2]": {"tested_on": "LPS-stimulated macrophages", "assay": "TNF-alpha production by LPS-stimulated macrophages (ELISA)", "format": "cell-based, ICR mice", "settings": "astaxanthin alone, FIG. 3", "method": "as §1\nConcentrations of TNF-alpha in cell culture supernatants were quantified by ELISA kits (Biolegend, SanDiego, Calif., USA).\nas §2"}}}
{"compound": "CC1=C(/C=C/C(C)=C/C=C/C(C)=C/C=C/C=C(C)/C=C/C=C(C)/C=C/C2=C(C)C(=O)[C@@H](O)CC2(C)C)C(C)(C)C[C@H](O)C1=O", "note": "[astaxanthin]", "values": [{"measurement": "inhibition of NO production", "setting": "[1]", "value": "in a dose dependent manner"}, {"measurement": "inhibition of TNF alpha production", "setting": "[2]", "value": "in a dose dependent manner"}]}
